The record followed here is patent publication US12590062B2, “PD-1/PD-L1 inhibitors” (Gilead Sciences, Inc., priority 2017, dated 2026).

The target in one assay is PD-1/PD-L1 (Homo sapiens, UniProt Q9NZQ7). In words: PD-1/PD-L1 biochemical protein-protein interaction assay (ALPHA). To be noted: 0.3 nM His tagged PD-L1, 2.5 nM biotinylated Fc-PD-1, 60 minutes at 25° C., read-out: IC50 PD-L1-PD-1 Alpha IC50-mono PD-L1-fcP-D1. It is filed as binding. The method, boiled down: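 IC50 values derive from four-parameter fits of ALPHA signal decrease. Assay: 0.3 nM His-tagged PD-L1 with 2.5 nM biotinylated Fc-PD-1, Hepes pH 7.4 with 0.005% Tween 20 and 0.01% BSA, 60 min at 25° C, then anti-His acceptor and streptavidin donor beads.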
Sequence of PD-1/PD-L1 (Q9NZQ7 19-238 limits assumed): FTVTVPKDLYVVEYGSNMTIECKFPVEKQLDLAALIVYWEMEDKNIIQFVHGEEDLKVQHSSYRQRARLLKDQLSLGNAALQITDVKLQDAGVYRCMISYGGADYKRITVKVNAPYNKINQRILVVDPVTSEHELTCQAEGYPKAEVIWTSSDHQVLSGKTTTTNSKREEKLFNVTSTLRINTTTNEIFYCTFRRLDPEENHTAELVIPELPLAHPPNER

The target in a further assay is T1, PD-1/PD-L1 interaction (Homo sapiens, UniProt Q9NZQ7).
T1 construct: expressed in transfected cells; host or cells: CHO cells (aAPC-PD-L1) co-cultured with Jurkat cells overexpressing PD-1 and an NFAT-luciferase reporter
T1 sequence (Q9NZQ7 19-290): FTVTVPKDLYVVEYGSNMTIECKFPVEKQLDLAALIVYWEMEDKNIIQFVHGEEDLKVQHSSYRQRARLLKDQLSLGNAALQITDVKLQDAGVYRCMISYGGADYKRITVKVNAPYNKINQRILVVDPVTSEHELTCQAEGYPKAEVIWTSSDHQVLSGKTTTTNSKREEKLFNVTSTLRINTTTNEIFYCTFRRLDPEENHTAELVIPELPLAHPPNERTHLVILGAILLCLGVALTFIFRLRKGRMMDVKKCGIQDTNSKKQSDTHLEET
In words: PD-1/PD-L1 NFAT reporter co-culture assay. Type of assay: cell-based. To be noted: Jurkat PD-1 NFAT-luciferase cells co-cultured with aAPC-PD-L1 CHO cells, 6 hrs at 37° C.; read-out: EC50 NFAT Luciferase. The essentials:
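Jurkat cells overexpressing PD-1 with NFAT-luciferase mixed with compounds and plated onto CHO aAPCs expressing anti-CD3 and PD-L1, RPMI with 2% FBS. Co-culture 6 h at 37 °C; luminescence read with ONE-Glo. EC50 from four-parameter fit.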

For the compound `Cc1c(COc2cc(OCc3cncc(C#N)c3)c(CNCCO)cc2Cl)cccc1-c1cccc(COc2cc(OCC3CC3)c(CNCCO)cc2Cl)c1C` [Example 199, 5-((4-Chloro-5-((3′-((2-chloro-5-(cyclopropylmethoxy)-4-(((2-hydroxyethyl)amino)methyl)phenoxy)methyl)-2,2′-dimethyl-[1,1′-biphenyl]-3-yl)methoxy)-2-(((2-hydroxyethyl)amino)methyl)phenoxy)methyl)nicotinonitrile], the IC50 (as a rule, the concentration that gives 50% inhibition) at PD-1/PD-L1 was found to be 188 nM. Also, on PD-1/PD-L1 interaction, the EC50 (commonly the midpoint of the concentration-response curve) stood at 2150 nM.
As to `Cc1c(COc2cc(OCc3cncc(C#N)c3)c(CNCCO)cc2Cl)cccc1-c1cccc(COc2cc(OCc3ccc(F)c(C#N)c3)c(CNCCO)cc2Cl)c1C` [Example 200, 5-((4-Chloro-5-((3′-((2-chloro-5-((3-cyano-4-fluorobenzyl)oxy)-4-(((2-hydroxyethyl)amino)methyl)phenoxy)methyl)-2,2′-dimethyl-[1,1′-biphenyl]-3-yl)methoxy)-2-(((2-hydroxyethyl)amino)methyl)phenoxy)methyl)nicotinonitrile], the IC50 on PD-1/PD-L1 stood at 138 nM. In addition, the EC50 at PD-1/PD-L1 interaction amounted to 893 nM.
Consider `COc1nc(OCc2cccc(-c3cccc(COc4cc(OCc5cncc(C#N)c5)c(CNCCO)cc4Cl)c3C)c2C)ccc1CNCCO` [Example 201, 5-((4-Chloro-2-(((2-hydroxyethyl)amino)methyl)-5-((3′-(((5-(((2-hydroxyethyl)amino)methyl)-6-methoxypyridin-2-yl)oxy)methyl)-2,2′-dimethyl-[1,1′-biphenyl]-3-yl)methoxy)phenoxy)methyl)nicotinonitrile], for which the IC50 at PD-1/PD-L1 is 31.2 nM. Besides, the EC50 on PD-1/PD-L1 interaction is 1110 nM.
For `COc1nc(OCc2cccc(-c3cccc(COc4cc(OCc5cncc(C#N)c5)c(CNC[C@@H](O)CC(=O)O)cc4Cl)c3C)c2C)ccc1CNCCO` [Example 202, (S)-4-((5-Chloro-2-((5-cyanopyridin-3-yl)methoxy)-4-((3′-(((5-(((2-hydroxyethyl)amino)methyl)-6-methoxypyridin-2-yl)oxy)methyl)-2,2′-dimethyl-[1,1′-biphenyl]-3-yl)methoxy)benzyl)amino)-3-hydroxybutanoic acid], in that order: 3.2 nM and 1920 nM.
In the case of `Cc1c(COc2cc(OCc3cncc(C#N)c3)c(CNCCO)cc2Cl)cccc1-c1cccc(COc2ccc(CNCCO)cc2C(F)(F)F)c1C` [Example 204, 5-((4-Chloro-2-(((2-hydroxyethyl)amino)methyl)-5-((3′-((4-(((2-hydroxyethyl)amino)methyl)-2-(trifluoromethyl)phenoxy)methyl)-2,2′-dimethyl-[1,1′-biphenyl]-3-yl)methoxy)phenoxy)methyl)nicotinonitrile], the IC50 at PD-1/PD-L1 is 25.7 nM. In addition, the EC50 at PD-1/PD-L1 interaction worked out at 927 nM.
Consider `Cc1c(COc2cc(OCc3cncc(C#N)c3)c(CNCCO)cc2Cl)cccc1-c1cccc(COc2cc(OCc3cncc(C#N)c3)c(CNC[C@@H](O)CC(=O)O)cc2Cl)c1C` [Example 207, (S)-4-((5-Chloro-4-((3′-((2-chloro-5-((5-cyanopyridin-3-yl)methoxy)-4-(((2-hydroxyethyl)amino)methyl)phenoxy)methyl)-2,2′-dimethyl-[1,1′-biphenyl]-3-yl)methoxy)-2-((5-cyanopyridin-3-yl)methoxy)benzyl)amino)-3-hydroxybutanoic acid], for which the IC50 at PD-1/PD-L1 worked out at 2 nM. For the same compound, the EC50 at PD-1/PD-L1 interaction came out at 1550 nM.
As to `Cc1c(COc2cc(OCc3cncc(C#N)c3)c(CNC[C@@H](O)CC(=O)O)cc2Cl)cccc1-c1cncc(COc2cc(OCc3cncc(C#N)c3)c(CNC[C@@H](O)CC(=O)O)cc2Cl)c1` [Example 208, (S)-4-((4-((5-(3-((4-((((S)-3-Carboxy-2-hydroxypropyl)amino)methyl)-2-chloro-5-((5-cyanopyridin-3-yl)methoxy)phenoxy)methyl)-2-methylphenyl)pyridin-3-yl)methoxy)-5-chloro-2-((5-cyanopyridin-3-yl)methoxy)benzyl)amino)-3-hydroxybutanoic acid], the IC50 on PD-1/PD-L1 is 1.4 nM. Besides, the EC50 at PD-1/PD-L1 interaction came out at 10600 nM.
For `Cc1c(COc2cc(OCc3cncc(C#N)c3)c(CNCC[C@H](O)C(=O)O)cc2Cl)cccc1-c1cccc(COc2cc(OCc3cncc(C#N)c3)c(CNCC[C@H](O)C(=O)O)cc2Cl)c1C` [Example 215, (2S,2′S)-4,4′-((((((2,2′-dimethyl-[1,1′-biphenyl]-3,3′-diyl)bis(methylene))bis(oxy))bis(5-chloro-2-((5-cyanopyridin-3-yl)methoxy)-4,1-phenylene))bis(methylene))bis(azanediyl))bis(2-hydroxybutanoic acid)], in that order: 1.26 nM and 413 nM.
The corresponding values for `Cc1c(COc2cc(OCc3ccnc(C#N)c3)c(CNC[C@@H](O)CC(=O)O)cc2Cl)cccc1-c1cccc(COc2cc(OCc3ccnc(C#N)c3)c(CNC[C@@H](O)CC(=O)O)cc2Cl)c1C` [Example 219, (3S,3′S)-4,4′-((((((2,2′-dimethyl-[1,1′-biphenyl]-3,3′-diyl)bis(methylene))bis(oxy))bis(5-chloro-2-((2-cyanopyridin-4-yl)methoxy)-4,1-phenylene))bis(methylene))bis(azanediyl))bis(3-hydroxybutanoic acid)] are 0.2 nM and 558 nM.
In the case of `Cc1c(COc2cc(OCc3cc(C#N)cc(C#N)c3)c(CNC[C@@H](O)CC(=O)O)cc2Cl)cccc1-c1cccc(COc2cc(OCc3cc(C#N)cc(C#N)c3)c(CNC[C@@H](O)CC(=O)O)cc2Cl)c1C` [Example 220, (3S,3′S)-4,4′-((((((2,2′-dimethyl-[1,1′-biphenyl]-3,3′-diyl)bis(methylene))bis(oxy))bis(5-chloro-2-((3,5-dicyanobenzyl)oxy)-4,1-phenylene))bis(methylene))bis(azanediyl))bis(3-hydroxybutanoic acid)], the IC50 on PD-1/PD-L1 is 2 nM. In addition, the EC50 on PD-1/PD-L1 interaction worked out at 177 nM.
Consider `Cc1c(COc2cc(OCc3cccc(C#N)n3)c(CNC[C@@H](O)CC(=O)O)cc2Cl)cccc1-c1cccc(COc2cc(OCc3cccc(C#N)n3)c(CNC[C@@H](O)CC(=O)O)cc2Cl)c1C` [Example 221, (3S,3′S)-4,4′-((((((2,2′-dimethyl-[1,1′-biphenyl]-3,3′-diyl)bis(methylene))bis(oxy))bis(5-chloro-2-((6-cyanopyridin-2-yl)methoxy)-4,1-phenylene))bis(methylene))bis(azanediyl))bis(3-hydroxybutanoic acid)], for which the IC50 on PD-1/PD-L1 worked out at 1.5 nM. Further, the EC50 at PD-1/PD-L1 interaction is 274 nM.
For `Cc1c(COc2cc(OCc3cncc(C(N)=O)c3)c(CNC[C@@H](O)CC(=O)O)cc2Cl)cccc1-c1cccc(COc2cc(OCc3cncc(C(N)=O)c3)c(CNC[C@@H](O)CC(=O)O)cc2Cl)c1C` [Example 222, (3S,3′S)-4,4′-((((((2,2′-dimethyl-[1,1′-biphenyl]-3,3′-diyl)bis(methylene))bis(oxy))bis(2-((5-carbamoylpyridin-3-yl)methoxy)-5-chloro-4,1-phenylene))bis(methylene))bis(azanediyl))bis(3-hydroxybutanoic acid)], in that order: 0.3 nM and 856 nM.
In the case of `Cc1c(COc2ccc(CNCCO)cc2C(F)(F)F)cccc1-c1cccc(COc2ccc(CNCCO)cc2C(F)(F)F)c1C` [Example 223, 2,2′-((((((2,2′-dimethyl-[1,1′-biphenyl]-3,3′-diyl)bis(methylene))bis(oxy))bis(3-(trifluoromethyl)-4,1-phenylene))bis(methylene))bis(azanediyl))bis(ethan-1-ol)], the IC50 at PD-1/PD-L1 is 34.6 nM. The concentration giving a half-maximal response (EC50) at PD-1/PD-L1 interaction was no less than 50000 nM.
